Laboratory results published in the supplement of paper PMC10307832.

Tests used:
Test in all cases: relative viability (nuclei count vs DMSO), 5 days (fraction); higher = more cells survive
NCI-H650 = system: NCI-H650
In short: (§1)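 Dosing by pin tool came one day after lung cancer cell lines were seeded in 1536-well plates, using either one drug or a fixed anchor-drug dose plus five library-drug doses (not always all listed) in √10 steps. After 5 days, nuclei were counted on 4× images. Relative viability is treated-well nuclei count divided by vehicle-well nuclei count, and values are medians of duplicate plates.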

NCI-H1355 = system: NCI-H1355
In short: as §1

NCI-H838 = system: NCI-H838
In short: as §1

NCI-H2023 = system: NCI-H2023
In short: as §1

EPLC-272H = system: EPLC-272H
In short: as §1

NCI-H1993 = system: NCI-H1993
In short: as §1

PC-14 = system: PC-14
In short: as §1

HARA = system: HARA
In short: as §1

HCC-15 = system: HCC-15
In short: as §1

LC-2-ad = system: LC-2-ad
In short: as §1

ABC-1 = system: ABC-1
In short: as §1

HCC-78 = system: HCC-78
In short: as §1

O=C(O)c1ccc(-c2c[nH]c3ncc(-c4ccccc4)cc23)cc1C1CCCC1 + CC(=O)c1c(C)c2cnc(Nc3ccc(N4CCNCC4)cn3)nc2n(C2CCCC2)c1=O [Palbociclib] (partner 0.5 µM)
relative viability (NCI-H650; first compound 0.04 µM): 0.32 | relative viability (NCI-H650; first compound 0.1265 µM): 0.344 | relative viability (NCI-H650; first compound 0.4 µM): 0.312 | relative viability (NCI-H650; first compound 1.265 µM): 0.279 | relative viability (NCI-H1355; first compound 0.04 µM): 0.393 | relative viability (NCI-H1355; first compound 0.1265 µM): 0.406 | relative viability (NCI-H1355; first compound 0.4 µM): 0.407 | relative viability (NCI-H1355; first compound 1.265 µM): 0.395 | relative viability (NCI-H838; first compound 0.04 µM): 0.189 | relative viability (NCI-H838; first compound 0.1265 µM): 0.267 | relative viability (NCI-H838; first compound 0.4 µM): 0.214 | relative viability (NCI-H838; first compound 1.265 µM): 0.215 | relative viability (NCI-H2023; first compound 0.04 µM): 0.407 | relative viability (NCI-H2023; first compound 0.1265 µM): 0.394 | relative viability (NCI-H2023; first compound 0.4 µM): 0.358 | relative viability (NCI-H2023; first compound 1.265 µM): 0.312 | relative viability (EPLC-272H; first compound 0.04 µM): 0.337 | relative viability (EPLC-272H; first compound 0.1265 µM): 0.332 | relative viability (EPLC-272H; first compound 0.4 µM): 0.321 | relative viability (EPLC-272H; first compound 1.265 µM): 0.294 | relative viability (NCI-H1993; first compound 0.04 µM): 0.62 | relative viability (NCI-H1993; first compound 0.1265 µM): 0.601 | relative viability (NCI-H1993; first compound 0.4 µM): 0.596 | relative viability (NCI-H1993; first compound 1.265 µM): 0.537 | relative viability (PC-14; first compound 0.04 µM): 0.473 | relative viability (PC-14; first compound 0.1265 µM): 0.532 | relative viability (PC-14; first compound 0.4 µM): 0.396 | relative viability (PC-14; first compound 1.265 µM): 0.486 | relative viability (HARA; first compound 0.04 µM): 0.308 | relative viability (HARA; first compound 0.1265 µM): 0.267 | relative viability (HARA; first compound 0.4 µM): 0.248 | relative viability (HARA; first compound 1.265 µM): 0.216 | relative viability (HCC-15; first compound 0.04 µM): 0.793 | relative viability (HCC-15; first compound 0.1265 µM): 0.762 | relative viability (HCC-15; first compound 0.4 µM): 0.631 | relative viability (HCC-15; first compound 1.265 µM): 0.431 | relative viability (LC-2-ad; first compound 0.04 µM): 0.425 | relative viability (LC-2-ad; first compound 0.1265 µM): 0.541 | relative viability (LC-2-ad; first compound 0.4 µM): 0.489 | relative viability (LC-2-ad; first compound 1.265 µM): 0.42 | relative viability (ABC-1; first compound 0.04 µM): 0.674 | relative viability (ABC-1; first compound 0.1265 µM): 0.892 | relative viability (ABC-1; first compound 0.4 µM): 0.551 | relative viability (ABC-1; first compound 1.265 µM): 0.742 | relative viability (HCC-78; first compound 0.04 µM): 0.494 | relative viability (HCC-78; first compound 0.1265 µM): 0.467
